# Laboratory results taken from US10610522B2, “Methods for retreating irritable bowel syndrome (IBS)” (Salix Pharmaceuticals, Inc., priority 2014, dated 2020).
# Tested on: C. difficile infection (CDI)
# Assay: Double-blind non-inferiority trial rifaximin 400 mg TID vs vancomycin 125 mg QID, 10 days, C. difficile infection
# Format: in vivo, human
# Method: Criteria for entry into the trial were: • Age >=18 years old; • Had acute diarrhea at screening defined as >=3 unformed stools in the last 24 hours and at least one sign of enteric infection (fever, nausea, lose of appetite, vomiting, severe abdominal pain/discomfort); and • a positive C. diff stool toxin assay Endpoint:
# The primary efficacy endpoint of the study was defined as the proportion of subjects achieving clinical success. Specifically, clinical success was defined as the absence of severe abdominal pain at Test of Cure (TOC), absence of fever (<38° C.) at TOC, and <3 unformed stools for two consecutive days at TOC.
# Clinical success was defined as the: Absence of severe abdominal pain at TOC, absence of fever (<38° C.) at TOC, and <3 unformed stools for two consecutive days at TOC. Test of cure defined as Day 14+/−1 day.
# Recurrence was defined to be a diarrhea and a positive C. diff stool toxin assay that occurred after initial clinical success.
# Global cure of diarrhea was defined as subjects who were cured of diarrhea at TOC without recurrence at follow up.
# Subjects who completed the study without achieving clinical success were censored at Day 14
# [1] = Rifaximin N = 117, Vancomycin N = 115
# [2] = adjusting for concomitant medication usage, Rifaximin N = 109, Vancomycin N = 112
# [3] = adjusting for concomitant medication usage, Rifaximin N = 117, Vancomycin N = 115
# [4] = after initial clinical success, Rifaximin N = 67, Vancomycin N = 73
# [5] = all subjects, Rifaximin N = 117, Vancomycin N = 115
# [6] = at TOC, Rifaximin N = 108, Vancomycin N = 111
# [7] = at TOC, Rifaximin N = 117, Vancomycin N = 115
# [8] = cured at TOC without recurrence at follow up, Rifaximin N = 117, Vancomycin N = 115
# [9] = subgroup Age <65, at TOC, Rifaximin N = 69, Vancomycin N = 62
# [10] = subgroup Age >=65, at TOC, Rifaximin N = 39, Vancomycin N = 49
# [11] = subgroup Female, at TOC, Rifaximin N = 68, Vancomycin N = 64
# [12] = subgroup Male, at TOC, Rifaximin N = 40, Vancomycin N = 47
structure (smiles),measurement,setting,value
CN[C@H](CC(C)C)C(=O)N[C@H]1C(=O)N[C@@H](CC(N)=O)C(=O)N[C@H]2C(=O)N[C@H]3C(=O)N[C@H](C(=O)N[C@H](C(=O)O)c4cc(O)cc(O)c4-c4cc3ccc4O)[C@H](O)c3ccc(c(Cl)c3)Oc3cc2cc(c3O[C@@H]2O[C@H](CO)[C@@H](O)[C@H](O)[C@H]2O[C@H]2C[C@](C)(N)[C@H](O)[C@H](C)O2)Oc2ccc(cc2Cl)[C@H]1O [Vancomycin],Continuing Illness No: % of subjects,[1],86%
same,Continuing Illness No: number of subjects,[1],99
same,Continuing Illness Yes: % of subjects,[1],14%
same,Continuing Illness Yes: number of subjects,[1],16
same,Global Cure of Diarrhea No: % of subjects,[1],26%
same,Global Cure of Diarrhea No: number of subjects,[1],30
same,Diarrhea No: % of subjects,[2],73%
same,Diarrhea No: number of subjects,[2],82
same,Diarrhea Yes: % of subjects,[2],27%
same,Diarrhea Yes: number of subjects,[2],30
same,Clinical Success No: % of subjects,[3],40%
same,Clinical Success No: number of subjects,[3],46
same,Clinical Success Yes: % of subjects,[3],60%
same,Clinical Success Yes: number of subjects,[3],69
same,No Recurrence of CDI: % of subjects,[4],86%
same,No Recurrence of CDI: number of subjects,[4],63
same,Recurrence of CDI: % of subjects,[4],14%
same,Recurrence of CDI: number of subjects,[4],10
same,Recurrence No: % of subjects,[5],93%
same,Recurrence No: number of subjects,[5],105
same,Recurrence Yes: % of subjects,[5],7%
same,Recurrence Yes: number of subjects,[5],10
same,Diarrhea No: % of subjects,[6],81%
same,Diarrhea No: number of subjects,[6],90
same,Diarrhea Yes: % of subjects,[6],19%
same,Diarrhea Yes: number of subjects,[6],21
same,Fever No: % of subjects,[6],98%
same,Fever No: number of subjects,[6],109
same,Fever Yes: % of subjects,[6],2 (2%)
same,Fever Yes: number of subjects,[6],2 (2%)
same,Severe Abdominal Pain/Discomfort No: % of subjects,[6],86%
same,Severe Abdominal Pain/Discomfort No: number of subjects,[6],95
same,Severe Abdominal Pain/Discomfort Yes: % of subjects,[6],14%
same,Severe Abdominal Pain/Discomfort Yes: number of subjects,[6],16
same,Clinical Success No: % of subjects,[7],37%
same,Clinical Success No: number of subjects,[7],42
same,Clinical Success Yes: % of subjects,[7],64%
same,Clinical Success Yes: number of subjects,[7],73
same,Global Cure of Diarrhea Yes: % of subjects,[8],74%
same,Global Cure of Diarrhea Yes: number of subjects,[8],85
same,Adjusted mean number of unformed stools-ANOVA,"during the treatment period, Rifaximin N = 117, Vancomycin N = 115",1.90
same,Diarrhea: % of subjects,[9],19%
same,Diarrhea: number of subjects,[9],12
same,No Diarrhea: % of subjects,[9],81%
same,No Diarrhea: number of subjects,[9],50
same,Diarrhea: % of subjects,[10],18%
same,Diarrhea: number of subjects,[10],9
same,No Diarrhea: % of subjects,[10],82%
same,No Diarrhea: number of subjects,[10],40
same,Diarrhea: % of subjects,[11],17%
same,Diarrhea: number of subjects,[11],11
same,No Diarrhea: % of subjects,[11],83%
same,No Diarrhea: number of subjects,[11],53
same,Diarrhea: % of subjects,[12],21%
same,Diarrhea: number of subjects,[12],10
same,No Diarrhea: % of subjects,[12],79%
same,No Diarrhea: number of subjects,[12],37
